Measured values reported in patent US11639353B2, “Cyclobutanes- and azetidine-containing mono and spirocyclic compounds as αV integrin inhibitors” (BRISTOL-MYERS SQUIBB COMPANY, priority 2016, dated 2023).
Where a name gives a salt, the structure may show the parent alone.

Target: T1, human αVβ6 (Homo sapiens, UniProt P06756+P18564)
T1 construct: purchased R & D systems 3817-AV
Assay: human αVβ6 HTRF binding assay
Conditions: alternatively SPA-based assay
Procedure: All binding assays used the HTRF (homogeneous time resolved fluorescence) technology from Cisbio International, therefore all assays are described as HTRF binding assays. The assay results for the Examples are listed above together with the characterization data. The HTRF binding assays are established for the following integrins: human αVβ6, human αVβ1, human αVβ3, human αVβ5, and human αVβ8. All assays used the following assay buffer: 20 mM Tris, pH 7.4, 1 mM MgCl2, 1 mM MnCl2, 0.01% Tween 20, and 0.01% BSA. Alternatively, a SPA-based assay was used for evaluation of receptor binding.
The following describes the components and a representative procedure for the human αVβ6 HTRF binding assay: Recombinant human αVβ6 Integrin (R & D systems, 3817-AV) was biotinylated. Biotinylated human αVβ6 Integrin was added to assay vessel at a final concentration of 1.25 nM. FITC-conjugated fibronectin (Cytoskeleton, FNR02) was then added at the final concentration of 5 nM. The mixture was centrifuged at 600 rpm for three minutes using Thermo Fisher Heraeus Multifuge X3 centrifuge and then incubated at RT for an hour. Streptavidin Terbium (Cisbio international 610STLB) was then added at the final concentration of 0.625 nM. The resulting mixture was centrifuged at 600 rpm for three minutes using Thermo Fisher Heraeus Multifuge X3 centrifuge and then incubated at room temperature overnight in dark before reading HTRF signals.
The SPA-based assay was carried out according to the protocol and procedures similar to the ones described in the following reference with appropriate modifications to agents and ligands which are readily understood by one skilled in the art: Pachter J A, Zhang R, Mayer-Ezell R., “Scintillation proximity assay to measure binding of soluble fibronectin to antibody-captured αVβ1 integrin” Anal Biochem. 1995 Sep. 1; 230(1):101-7.

T1 sequence (P06756 31-992 limits assumed): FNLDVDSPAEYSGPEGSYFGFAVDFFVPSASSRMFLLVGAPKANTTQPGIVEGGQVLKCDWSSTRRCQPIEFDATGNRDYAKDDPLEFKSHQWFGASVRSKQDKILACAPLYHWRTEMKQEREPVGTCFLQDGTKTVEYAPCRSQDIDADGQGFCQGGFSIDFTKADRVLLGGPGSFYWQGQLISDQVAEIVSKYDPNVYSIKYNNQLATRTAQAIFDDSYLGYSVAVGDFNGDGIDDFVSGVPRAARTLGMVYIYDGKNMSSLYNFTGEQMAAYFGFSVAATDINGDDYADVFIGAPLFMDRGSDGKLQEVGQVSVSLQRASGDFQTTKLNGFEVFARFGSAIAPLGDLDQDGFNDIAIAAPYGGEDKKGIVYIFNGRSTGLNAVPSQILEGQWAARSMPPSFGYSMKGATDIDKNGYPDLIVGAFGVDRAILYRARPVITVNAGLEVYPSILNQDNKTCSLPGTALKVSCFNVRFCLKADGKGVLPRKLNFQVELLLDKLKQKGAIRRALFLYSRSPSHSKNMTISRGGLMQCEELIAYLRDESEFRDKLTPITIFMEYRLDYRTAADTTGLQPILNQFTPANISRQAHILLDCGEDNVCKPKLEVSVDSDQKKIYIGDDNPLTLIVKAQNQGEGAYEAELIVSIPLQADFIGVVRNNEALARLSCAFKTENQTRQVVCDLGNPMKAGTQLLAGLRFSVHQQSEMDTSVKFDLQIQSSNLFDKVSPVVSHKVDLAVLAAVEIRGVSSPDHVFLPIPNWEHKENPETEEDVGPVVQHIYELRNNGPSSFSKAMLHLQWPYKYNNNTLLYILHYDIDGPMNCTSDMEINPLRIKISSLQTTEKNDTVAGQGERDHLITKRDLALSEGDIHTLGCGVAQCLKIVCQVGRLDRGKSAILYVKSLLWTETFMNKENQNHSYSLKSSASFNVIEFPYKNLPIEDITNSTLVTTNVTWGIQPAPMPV
T1 sequence (P18564 22-707 limits assumed): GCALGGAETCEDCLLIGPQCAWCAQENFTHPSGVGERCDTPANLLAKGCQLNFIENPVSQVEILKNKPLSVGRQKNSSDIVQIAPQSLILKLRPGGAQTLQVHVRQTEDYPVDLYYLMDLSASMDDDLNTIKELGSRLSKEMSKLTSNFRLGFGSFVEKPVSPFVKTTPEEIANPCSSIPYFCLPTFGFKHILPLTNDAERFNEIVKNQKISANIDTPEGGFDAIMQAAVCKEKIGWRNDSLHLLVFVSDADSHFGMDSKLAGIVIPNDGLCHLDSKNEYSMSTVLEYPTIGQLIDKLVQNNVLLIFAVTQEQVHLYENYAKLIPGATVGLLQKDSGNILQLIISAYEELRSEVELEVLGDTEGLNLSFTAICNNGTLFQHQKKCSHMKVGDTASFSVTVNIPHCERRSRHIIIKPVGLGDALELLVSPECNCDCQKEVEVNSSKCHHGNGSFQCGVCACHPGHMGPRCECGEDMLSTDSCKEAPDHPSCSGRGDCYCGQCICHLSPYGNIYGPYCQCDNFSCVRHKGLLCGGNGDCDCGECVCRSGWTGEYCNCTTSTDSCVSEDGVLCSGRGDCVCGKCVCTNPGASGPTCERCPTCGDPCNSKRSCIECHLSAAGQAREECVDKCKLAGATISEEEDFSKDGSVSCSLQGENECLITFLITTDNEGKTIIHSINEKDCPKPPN

Molecule	IC50
COc1ccc([C@H](CC(=O)O)NC(=O)C2CN(CCc3ccc4c(n3)NCCC4)C2)cc1F [Example 42]	0.4 nM
O=C(O)C[C@H](NC(=O)C1CC2(C1)CN(C(=O)CCc1ccc3c(n1)NCCC3)C2)c1cc(Cl)cc(Cl)c1 [Example 1, (S)-3-(3,5-Dichlorophenyl)-3-(2-(3-(5,6,7,8-tetrahydro-1,8-naphthyridin-2-yl)propanoyl)-2-azaspiro[3.3]heptane-6-carboxamido)propanoic acid, TFA]	420 nM
Cc1ncc([C@@H](CC(=O)O)N2CC(COCCc3ccc4c(n3)NCCC4)C2)cn1 [example 128, (R)-3-(2-methylpyrimidin-5-yl)-3-(3-((2-(5,6,7,8-tetrahydro-1,8-naphthyridin-2-yl)ethoxy)methyl)azetidin-1-yl)propanoic acid]	38 nM
O=C(O)CC(NC(=O)[C@H]1C[C@H](CCc2ccc3c(n2)NCCC3)C1)c1cnc(C(F)(F)F)nc1 (single isomer, unassigned) [Example 194, 3-(trans-3-(2-(5,6,7,8-Tetrahydro-1,8-naphthyridin-2-yl)ethyl)cyclobutane-1-carboxamido)-3-(2-(trifluoromethyl)pyrimidin-5-yl)propanoic acid]	21 nM
COc1ccc([C@H](CC(=O)O)C2(F)CN(C(=O)CCCc3ccc4c(n3)NCCC4)C2)cn1 (single isomer, unassigned) [Example 17]	29 nM
O=C(O)[C@H](CN1CC(CCCc2ccc3c(n2)NCCC3)C1=O)NS(=O)(=O)c1ccc(F)cc1 (single isomer, unassigned) [Example 187]	24 nM
(S)-Ethyl 3-(6-methoxypyridin-3-yl)-3-(1-methyl-3-(2-(5,6,7,8-tetrahydro-1,8-naphthyridin-2-yl)ethyl)cyclobutanecarboxamido)propanoate [Example 15]	5.2 nM
CCOC(=O)[C@H](CNC(=O)[C@H]1C[C@@H](Cc2ccc3c(n2)NCCC3)C1)NC(=O)OCc1ccccc1 [Example 195, Ethyl (S)-2-(((benzyloxy)carbonyl)amino)-3-(cis-3-((5,6,7,8-tetrahydro-1,8-naphthyridin-2-yl)methyl)cyclobutane-1-carboxamido)propanoate]	13 nM
COc1ccc([C@H](CC(=O)O)N2CC(F)(CCCCc3ccc4c(n3)NCCC4)C2)cn1 [Example 163]	2.4 nM
COc1ccc([C@@H](CC(=O)O)C2(F)CN(C(=O)CCCc3ccc4c(n3)NCCC4)C2)cn1 (single isomer, unassigned) [Example 18]	170 nM
COc1ccc(C(NC(=O)C2CC(CCc3ccc4c(n3)NCCC4)C2)C(C)(C)C(=O)O)cn1 (single isomer, unassigned) [Example 190, 3-(6-methoxypyridin-3-yl)-2,2-dimethyl-3-(3-(2-(5,6,7,8-tetrahydro-1,8-naphthyridin-2-yl)ethyl)cyclobutane-1-carboxamido)propanoic acid]	3300 nM
COc1ccc([C@H](CC(=O)O)NC(=O)C2(F)CN(CCc3ccc4c(n3)NCCC4)C2)cc1F [Example 44]	0.6 nM
Cc1ncc([C@H](CC(=O)O)N2CC(F)(CCCCc3ccc4c(n3)NCCC4)C2)cn1 [Example 167]	3.3 nM
O=C(O)C[C@@H](c1cc(F)cc(F)c1)N1CC(CCCCc2ccc3c(n2)NCCC3)C1=O (some centres unmarked) [Example 71]	1.5 nM
O=C(N[C@@H](COC1CN(CCCc2ccc3c(n2)NCCC3)C1)C(=O)O)OCc1ccccc1 [Example 10, N-((Benzyloxy)carbonyl)-O-(1-(3-(5,6,7,8-tetrahydro-1,8-naphthyridin-2-yl)propyl)azetidin-3-yl)-L-serine]	0.8 nM
Cc1cc(C)c(S(=O)(=O)N[C@@H](CNC(=O)C2CC3(CC(NC(=O)CCc4ccc5c(n4)NCCC5)C3)C2)C(=O)O)c(C)c1 (some centres unmarked) [Example 28]	380 nM
Cc1cc(C)c(S(=O)(=O)N[C@@H](CNC(=O)[C@H]2C[C@@H](Cc3ccc4c(n3)NCCC4)C2)C(=O)O)c(C)c1 [Example 200, (S)-3-(cis-3-((5,6,7,8-Tetrahydro-1,8-naphthyridin-2-yl)methyl)-cyclobutane-1-carboxamido)-2-((2,4,6-trimethylphenyl)sulfonamido)-propanoic acid]	3.8 nM
O=C(O)C[C@H](NC(=O)C1CN(CCc2ccc3c(n2)NCCC3)C1)c1cc(Cl)cc(Cl)c1 [Example 38]	0.8 nM
Cc1cc(C)c(S(=O)(=O)N[C@@H](CN2CC(CCCc3ccc4c(n3)NCCC4)C2=O)C(=O)O)c(C)c1 (single isomer, unassigned) [Example 186]	0.61 nM
O=C(O)C[C@@H](c1cc(F)cc(F)c1)N1CC(F)(CCCCc2ccc3c(n2)NCCC3)C1 [Example 162, (S)-3-(3,5-difluorophenyl)-3-(3-fluoro-3-(4-(5,6,7,8-tetrahydro-1,8-naphthyridin-2-yl)butyl)azetidin-1-yl)propanoic acid]	2 nM

More lines, now with the values ahead:

IC50	Molecule
3.6 nM	Cc1cc(C)n(-c2cccc(C(CC(=O)O)N3CC4(CC(Cc5ccc6c(n5)NCCC6)C4)C3)c2)n1 (centres unmarked) [Example 211, 3-(3-(3,5-dimethyl-1H-pyrazol-1-yl)phenyl)-3-(6-((5,6,7,8-tetrahydro-1,8-naphthyridin-2-yl)methyl)-2-azaspiro[3.3]heptan-2-yl)propanoic acid]
5.7 nM	COc1ccc([C@H](CC(=O)O)N2CC(CCCc3ccc4c(n3)NCCC4)C2=O)cn1 (single isomer, unassigned) [Example 182]
4.6 nM	COc1ccc(C(CC(=O)O)N2CC(OCCCc3ccc4c(n3)NCCC4)C2)cn1 (centres unmarked) [Example 134, 3-(6-methoxypyridin-3-yl)-3-(3-(3-(5,6,7,8-tetrahydro-1,8-naphthyridin-2-yl)propoxy)azetidin-1-yl)propanoic acid, 2 TFA]
26 nM	COc1ccc(C(CC(=O)O)C2CC(CCCCc3ccc4c(n3)NCCC4)C2)cn1 (single isomer, unassigned; diastereomer a) [Example 139, 3-(6-Methoxypyridin-3-yl)-3-(3-(4-(5,6,7,8-tetrahydro-1,8-naphthyridin-2-yl)butyl)cyclobutyl)propanoic acid (Diastereomer A)]
4.6 nM	CC(=O)N(CCCc1ccc2c(n1)NCCC2)C1CC(C(CC(=O)O)c2cccc(N3CCOCC3)c2)C1 (centres unmarked) [Example 149, 3-(3-Morpholinophenyl)-3-(3-(N-(3-(5,6,7,8-tetrahydro-1,8-naphthyridin-2-yl)propyl)acetamido)cyclobutyl)propanoic acid]
2.4 nM	COc1ccc(C(CC(=O)O)C2CC3(C2)CN(CCc2ccc4c(n2)NCCC4)C3)cc1F (centres unmarked) [Example 116]
2.4 nM	COc1ccc(C(CC(=O)O)C2CC3(C2)CN(CCc2ccc4c(n2)NCCC4)C3)cn1 (centres unmarked) [Example 100]
6.7 nM	CC(=O)N(CCCc1ccc2c(n1)NCCC2)C1CC(C(CC(=O)O)c2ccc3nccnc3c2)C1 (centres unmarked) [Example 150]
1.1 nM	COc1ccc([C@H](CC(=O)O)NC2CN(CCCc3ccc4c(n3)NCCC4)C2)cc1F [Example 72]
16 nM	CN(C1CC2(C1)CN(CCc1ccc3c(n1)NCCC3)C2)[C@@H](CC(=O)O)c1cc(Cl)cc(Cl)c1 [Example 20, (S)-3-(3,5-Dichlorophenyl)-3-(methyl(2-(2-(5,6,7,8-tetrahydro-1,8-naphthyridin-2-yl)ethyl)-2-azaspiro[3.3]heptan-6-yl)amino)propanoic acid]
21 nM	O=C(O)C[C@H](NC(=O)C1CC2(C1)CN(CCCc1ccc3c(n1)NCCC3)C2)c1cc(Cl)cc(Cl)c1 [Example 3, (S)-3-(3,5-Dichlorophenyl)-3-(2-(3-(5,6,7,8-tetrahydro-1,8-naphthyridin-2-yl)propyl)-2-azaspiro[3.3]heptane-6-carboxamido)propanoic acid]
1.5 nM	CC1(CCCCc2ccc3c(n2)NCCC3)CN([C@@H](CC(=O)O)c2cnc3ccccc3c2)C1 [Example 159]
130 nM	COc1ccc([C@H](CC(=O)O)NC(=O)C2CC3(C2)CN(CCCc2ccc4c(n2)NCCC4)C3)cn1 [Example 32]
3.2 nM	COc1ccc(C(CC(=O)O)C2CC(CCCCc3ccc4c(n3)NCCC4)C2)cn1 (centres unmarked) [Example 138, 3-(6-Methoxypyridin-3-yl)-3-(3-(4-(5,6,7,8-tetrahydro-1,8-naphthyridin-2-yl)butyl)cyclobutyl)propanoic acid]
6.2 nM	O=C(O)C[C@H](NC(=O)N1CC(CCc2ccc3c(n2)NCCC3)C1)c1cncnc1 [Example 121]
2.7 nM	O=C(O)CC(c1cnc2ccccc2c1)C1CC2(C1)CN(CCCc1ccc3c(n1)NCCC3)C2 (centres unmarked) [Example 117]
3 nM	O=C(O)C[C@@H](c1cncnc1)N1CC(CCCCc2ccc3c(n2)NCCC3)C1 [Example 157]
2.7 nM	O=C(O)CC(c1cccc(N2CCOCC2)c1)C1CC2(CC(CCc3ccc4c(n3)NCCC4)C2)C1 (centres unmarked) [Example 145]
3.6 nM	COc1ccc([C@H](CC(=O)O)N2CC(CCCCc3ccc4c(n3)NCCC4)C2)cn1 [Example 151]
4 nM	COc1ccc([C@H](CC(=O)O)N2CC(CCCc3ccc4c(n3)NCCC4)C2)cn1 [Example 169]
93 nM	O=C(O)CCC1CC2(C1)CC(CCc1ccc3c(n1)NCCC3)C2 (centres unmarked) [Example 124]
